The results in this text go back to patent publication US10077261B2, “Imidazolin-5-one derivative useful as FASN inhibitors for the treatment of cancer” (Janssen Pharmaceutica NV, priority 2012, dated 2018).

Assay [1] concerns A2780 ovarian cells. In words: A2780 ovarian cell proliferation assay in lipid reduced medium, with palmitate (MTT). Format: cell-based. Conditions: Homo sapiens, A2780, 96 h; read-out: pIC50 A2780 Ovarian Cell, With Palmitate (converted). The procedure:
(§1) The biological assays described below correspond to comparative assays for ovarian cell proliferation. […] Compounds active in the absence of palmitate would not be expected to be active in the control.
(§2) 2500 cells were seeded in a 96-well clear well plate in 200 μL RPMI1640 with 10% Fetal Calf Serum (Hyclone), and incubated at 37° C., 5% CO2. Blanks were wells without cells. The next day the culture medium was aspirated and replaced by 160 μL culture medium with 10% Lipid-Reduced Serum (LRS, Hyclone). 20 μL test compound (at concentrations of 30 μM, 10 μM, 3 μM, 1 μM, 0.30 μM, 0.10 μM, 0.03 μM and 0.01 μM)/DMSO dilution followed by 20 μL palmitate-BSA solution were added to a final concentrations of 0.2% DMSO, 25 μM palmitate (Sigma, P0500, 10 mM stock solution in ethanol) 0.2% fatty-acid-free BSA, 0.25% ethanol. After 96 h incubation, an MTT assay was performed. The absorbance was measured at 544 nm on a SPECTRAMAX brand microplate reader (Molecular Devices).
A best fit curve was fitted by a minimum sum of squares method, plotting Controlmin versus test compound concentration.
(§3) Representative compounds of the present invention were tested according to the procedure as described in Biological Example 3 above, with results as listed in Table 8, below.

The subject of assay [2] is A2780 ovarian cells. As to the kind of experiment: A2780 ovarian cell proliferation assay in lipid reduced medium, without palmitate (MTT). Format: cell-based. As to conditions: Homo sapiens, A2780, 96 h; read-out: pIC50 A2780 Ovarian Cell, Without Palmitate (converted). Here is the method:
as §1
as §2, with “ethanol-BSA” for “palmitate-BSA”, “DMSO,” for “DMSO, 25 μM palmitate (Sigma, P0500, 10 mM stock solution in ethanol)”, “incubation” for “incubation,”
where mLC and mHC were the means of the low control wells and high control wells on the plate, after manual exclusion of outliers. A plot of Controlmin versus test compound concentration was fitted to a 4-parameter logistic curve using a non-linear least squares regression method.
as §3

Assay [3] has as its target T1, hFASN enzyme (full length) (Homo sapiens, UniProt P49327).
T1 construct: 10 μL hFASN enzyme (full length, 300 ng, purified in house); made in house
In words: Fatty Acid Synthase (FASN) inhibition scintillation proximity assay. It is filed as biochemical. Put shortly:
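Compounds at 0.01–30 μM were mixed with 300 ng purified full-length enzyme in 100 mM KH2PO4 pH 7.5, 1 mM DTT. Substrates ³H-acetyl-CoA and malonyl-CoA were then converted, and bead addition stopped the reaction. Signal was normalised to low and high plate controls and fitted by 4-parameter nonlinear regression.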

T1 sequence (P49327 whole entry): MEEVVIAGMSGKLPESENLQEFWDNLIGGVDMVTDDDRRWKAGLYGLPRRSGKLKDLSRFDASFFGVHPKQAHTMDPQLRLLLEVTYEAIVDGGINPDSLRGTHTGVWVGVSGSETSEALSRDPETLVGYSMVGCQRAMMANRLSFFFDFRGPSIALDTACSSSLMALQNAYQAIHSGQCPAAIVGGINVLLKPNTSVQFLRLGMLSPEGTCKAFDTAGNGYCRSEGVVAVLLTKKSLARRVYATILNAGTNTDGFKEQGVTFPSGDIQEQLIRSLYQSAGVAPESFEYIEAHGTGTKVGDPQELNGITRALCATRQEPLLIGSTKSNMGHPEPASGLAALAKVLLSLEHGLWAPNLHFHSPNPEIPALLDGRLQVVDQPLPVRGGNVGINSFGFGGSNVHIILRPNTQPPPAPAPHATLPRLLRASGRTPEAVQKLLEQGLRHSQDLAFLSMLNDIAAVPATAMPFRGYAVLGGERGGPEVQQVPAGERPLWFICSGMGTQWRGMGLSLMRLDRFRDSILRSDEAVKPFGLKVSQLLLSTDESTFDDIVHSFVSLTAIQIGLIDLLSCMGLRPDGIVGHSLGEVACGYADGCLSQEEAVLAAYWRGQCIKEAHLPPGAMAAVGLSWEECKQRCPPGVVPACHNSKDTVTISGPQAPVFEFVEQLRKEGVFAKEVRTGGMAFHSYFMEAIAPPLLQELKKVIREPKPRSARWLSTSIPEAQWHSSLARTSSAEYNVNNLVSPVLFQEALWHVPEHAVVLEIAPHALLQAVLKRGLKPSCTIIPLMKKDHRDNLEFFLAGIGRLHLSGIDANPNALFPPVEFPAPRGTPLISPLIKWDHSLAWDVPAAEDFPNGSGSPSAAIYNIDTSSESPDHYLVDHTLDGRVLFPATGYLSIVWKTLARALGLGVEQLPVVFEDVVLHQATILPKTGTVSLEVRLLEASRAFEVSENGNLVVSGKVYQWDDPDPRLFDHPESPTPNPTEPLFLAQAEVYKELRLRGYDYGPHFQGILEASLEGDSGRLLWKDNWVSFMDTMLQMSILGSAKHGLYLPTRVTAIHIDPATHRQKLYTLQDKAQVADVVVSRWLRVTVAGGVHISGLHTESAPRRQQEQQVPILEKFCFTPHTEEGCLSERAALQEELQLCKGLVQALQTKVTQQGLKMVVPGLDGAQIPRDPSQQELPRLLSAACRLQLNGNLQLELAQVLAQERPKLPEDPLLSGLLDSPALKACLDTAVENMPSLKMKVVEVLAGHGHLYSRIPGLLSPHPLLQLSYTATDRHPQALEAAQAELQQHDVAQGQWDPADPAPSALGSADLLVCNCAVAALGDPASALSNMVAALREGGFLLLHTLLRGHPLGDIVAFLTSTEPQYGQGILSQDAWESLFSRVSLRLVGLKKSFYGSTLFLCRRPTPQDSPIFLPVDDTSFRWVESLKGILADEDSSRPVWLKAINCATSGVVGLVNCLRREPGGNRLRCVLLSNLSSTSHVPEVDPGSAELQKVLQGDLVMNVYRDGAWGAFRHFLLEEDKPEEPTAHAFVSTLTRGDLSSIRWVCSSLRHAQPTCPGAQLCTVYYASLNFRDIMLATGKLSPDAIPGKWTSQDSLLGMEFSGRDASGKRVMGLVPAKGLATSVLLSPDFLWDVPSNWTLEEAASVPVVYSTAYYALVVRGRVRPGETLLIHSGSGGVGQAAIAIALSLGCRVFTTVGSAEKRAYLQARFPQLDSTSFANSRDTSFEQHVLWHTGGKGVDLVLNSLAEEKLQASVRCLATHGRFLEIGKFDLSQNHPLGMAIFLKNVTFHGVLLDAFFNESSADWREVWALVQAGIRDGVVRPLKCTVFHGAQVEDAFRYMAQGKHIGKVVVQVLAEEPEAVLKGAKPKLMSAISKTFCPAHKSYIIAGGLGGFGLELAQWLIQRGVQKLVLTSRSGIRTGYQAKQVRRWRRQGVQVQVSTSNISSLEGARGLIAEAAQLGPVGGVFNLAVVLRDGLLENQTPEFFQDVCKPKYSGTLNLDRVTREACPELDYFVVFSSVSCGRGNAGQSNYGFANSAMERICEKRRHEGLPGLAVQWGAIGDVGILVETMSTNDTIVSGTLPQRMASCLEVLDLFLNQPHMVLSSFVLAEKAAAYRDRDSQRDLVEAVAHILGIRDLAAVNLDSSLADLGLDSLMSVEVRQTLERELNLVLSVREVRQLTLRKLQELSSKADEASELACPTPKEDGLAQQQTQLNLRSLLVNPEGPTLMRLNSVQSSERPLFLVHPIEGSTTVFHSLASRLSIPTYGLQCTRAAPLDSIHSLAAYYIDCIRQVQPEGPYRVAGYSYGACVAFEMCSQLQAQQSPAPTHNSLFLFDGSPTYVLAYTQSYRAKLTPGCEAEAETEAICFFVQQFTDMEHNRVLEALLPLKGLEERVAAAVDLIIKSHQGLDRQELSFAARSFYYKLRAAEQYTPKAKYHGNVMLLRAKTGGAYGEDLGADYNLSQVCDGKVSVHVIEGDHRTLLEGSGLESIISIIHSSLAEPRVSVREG

`Cn1ncc2cc(-c3ccc(C4=NC5(CC5)C(=O)N4CC4CCN(C(=O)C5CC5)CC4)cc3)ccc21` [compound 19, 6-{[1-(Cyclopropylcarbonyl)piperidin-4-yl]methyl}-5-[4-(1-methyl-1H-indazol-5-yl)phenyl]-4,6-diazaspiro[2.4]hept-4-en-7-one]: the IC50 in assay [1] is above 6170 nM; in assay [2] it was 4680 nM.
For `Cn1ncc2cc(-c3ccc(C4=NC5(CC5)C(=O)N4C[C@@H]4CCN(C(=O)C5CC5)C4)cc3)ccc21` [compound 28, 6-{[(3R)-1-(Cyclopropylcarbonyl)pyrrolidin-3-yl]methyl}-5-[4-(1-methyl-1H-indazol-5-yl)phenyl]-4,6-diazaspiro[2.4]hept-4-en-7-one] the same measures were above 10000 nM and 132 nM.
For `Cn1ncc2cc(-c3ccc(C4=NC5(CCCC5)C(=O)N4C[C@@H]4CCN(C(=O)C5CC5)C4)cc3)ccc21` [compound 35, 3-{[(3R)-1-(Cyclopropylcarbonyl)pyrrolidin-3-yl]methyl}-2-[4-(1-methyl-1H-indazol-5-yl)phenyl]-1,3-diazaspiro[4.4]non-1-en-4-one] the same measures were above 10000 nM and 479 nM.
Regarding `O=C(C1CC1)N1CC[C@@H](CN2C(=O)C3(CC3)N=C2c2ccc(-c3ccc4cnccc4c3)cc2)C1` [compound 47, 6-{[(3R)-1-(Cyclopropylcarbonyl)pyrrolidin-3-yl]methyl}-5-(4-isoquinolin-6-ylphenyl)-4,6-diazaspiro[2.4]hept-4-en-7-one], the values for the IC50 in assay [1] and in assay [2] were above 10000 nM and 7.76 nM, respectively.
The matching figures for `O=C(C1CC1)N1CC[C@@H](CN2C(=O)C3(CC3)N=C2c2ccc(-c3ccc4occc4c3)cc2)C1` [compound 58, (R)-5-(4-(Benzofuran-5-yl)phenyl)-6-((1-(cyclopropanecarbonyl)pyrrolidin-3-yl)methyl)-4,6-diazaspiro[2.4]hept-4-en-7-one]: above 10000 nM and 339 nM.
With `O=C(C1CC1)N1CC[C@@H](CN2C(=O)C3(CC3)N=C2c2ccc(-c3ccc4scnc4c3)cc2)C1` [compound 71, 5-[4-(1,3-Benzothiazol-5-yl)phenyl]-6-{[(3R)-1-(cyclopropylcarbonyl)pyrrolidin-3-yl]methyl}-4,6-diazaspiro[2.4]hept-4-en-7-one], the results for the IC50 in assay [1] and in assay [2] were above 10000 nM and 36.3 nM, respectively.
As for `O=C(C1CC1)N1CC[C@@H](CN2C(=O)C3(CC3)N=C2c2ccc(-c3cccc(Cl)c3)cc2)C1` [compound 112, 5-(3′-Chlorobiphenyl-4-yl)-6-{[(3R)-1-(cyclopropylcarbonyl)pyrrolidin-3-yl]methyl}-4,6-diazaspiro[2.4]hept-4-en-7-one], the IC50 is above 10000 nM in assay [1] and 1020 nM in assay [2].
The matching figures for `O=C(C1CC1)N1CC(CN2C(=O)C3(CC3)N=C2c2ccc(-c3ccc(-c4cnn(C5CCC5)c4)cc3)cc2F)C1` [compound 329, 5-(4′-(1-cyclobutyl-1H-pyrazol-4-yl)-3-fluoro-[1,1′-biphenyl]-4-yl)-6-((1-(cyclopropanecarbonyl)azetidin-3-yl)methyl)-4,6-diazaspiro[2.4]hept-4-en-7-one]: 3090 nM and 14.1 nM.
For `Cc1cc(-c2ccc(-c3cnn(C4CCC4)c3)cc2)ccc1C1=NC2(CC2)C(=O)N1CC1CN(C(=O)C2CC2)C1` [compound 330, 5-(4′-(1-cyclobutyl-1H-pyrazol-4-yl)-3-methyl-[1,1′-biphenyl]-4-yl)-6-((1-(cyclopropanecarbonyl)azetidin-3-yl)methyl)4,6-diazaspiro[2.4]hept-4-en-7-one] the same measures were around 6170 nM and 32.4 nM.
On to `Cn1ncc2cc(-c3ccc(C4=NC5(CCN(C(=O)C(F)(F)F)CC5)C(=O)N4CC4CN(C(=O)C5CC5)C4)cc3)ccc21` [compound 964, 3-((1-(cyclopropanecarbonyl)azetidin-3-yl)methyl)-2-(4-(1-methyl-1H-indazol-5-yl)phenyl)-8-(2,2,2,-trifluoroacetyl)-1,3,8-triazaspiro[4.5]dec-1-en-4-one], for which the inhibition at 10 µM in assay [3] (read-out: Human FASN % inhibition @ 10 μM, 10 μM test compound) amounted to 41%. The IC50 in assay [3] (read-out: Human FASN pIC50 (converted)) was around 11000 nM.
